Test results: patent publication US4629786A, “C-20- and C-23 modified macrolide derivatives” (Eli Lilly and Company, priority 1984, dated 1986)
Converted amounts (≈) assume the structure as drawn. Like-named read-outs stand apart in the source and are kept apart here.

What was measured:
[1] = test system: Staphylococcus aureus S13E; test: MIC, standard agar-dilution assay, Staphylococcus aureus S13E; type: cell-based
Experimental: (§1) Certain of the derivatives are active against some gram-negative bacteria, such as Pasteurella species. The MIC's in Table II were determined by standard agar-dilution assays.

[2] = test system: Staphylococcus epidermidis EPI2; test: MIC, standard agar-dilution assay, Staphylococcus epidermidis EPI2; type: cell-based
Experimental: as §1

[3] = test system: Streptococcus pneumoniae Park I; test: MIC, standard agar-dilution assay, Streptococcus pneumoniae Park I; type: cell-based
Experimental: as §1

[4] = test system: Staphylococcus aureus V41; test: MIC, standard agar-dilution assay, Staphylococcus aureus V41; type: cell-based
Experimental: as §1

[5] = Titration pKa
[6] = test system: Streptococcus pyogenes C203; test: MIC, standard agar-dilution assay, Streptococcus pyogenes C203; type: cell-based
Experimental: as §1

[7] = test system: Klebsiella pneumoniae KAE; test: MIC, standard agar-dilution assay, Klebsiella pneumoniae KAE; type: cell-based
Experimental: as §1

[8] = test system: Staphylococcus aureus X1.1; test: MIC, standard agar-dilution assay, Staphylococcus aureus X1.1; type: cell-based
Experimental: as §1

[9] = test system: Haemophilus influenzae 76; test: MIC, standard agar-dilution assay, Haemophilus influenzae 76; type: cell-based
Experimental: as §1

[10] = test system: Streptococcus pneumoniae Group D X9960; test: MIC, standard agar-dilution assay, Streptococcus pneumoniae Group D X9960; type: cell-based
Experimental: as §1

[11] = test system: Klebsiella pneumoniae X26; test: MIC, standard agar-dilution assay, Klebsiella pneumoniae X26; type: cell-based
Experimental: as §1

[12] = test system: Haemophilus influenzae C.L.; test: MIC, standard agar-dilution assay, Haemophilus influenzae C.L.; type: cell-based
Experimental: as §1

[13] = test system: Staphylococcus aureus X400; test: MIC, standard agar-dilution assay, Staphylococcus aureus X400; type: cell-based
Experimental: as §1

[14] = test system: Escherichia coli TEM; test: MIC, standard agar-dilution assay, Escherichia coli TEM; type: cell-based
Experimental: as §1

[15] = test system: Escherichia coli EC14; test: MIC, standard agar-dilution assay, Escherichia coli EC14; type: cell-based
Experimental: as §1

[16] = test system: Streptococcus pneumoniae Group D X66; test: MIC, standard agar-dilution assay, Streptococcus pneumoniae Group D X66; type: cell-based
Experimental: as §1

[17] = test system: Streptococcus pyogenes C203; test: protection of mice experimentally infected with S. pyogenes C203; type: in vivo; conditions: mg/kg × 2, doses given 1 and 4 hours postinfection
Experimental: Some of the derivatives of this invention have shown in vivo antimicrobial activity against experimentally-induced infections in laboratory animals. When two doses of test compound were administered to mice experimentally infected with S. pyogenes C203, the activity observed was measured as an ED50 value [effective dose in mg/kg to protect 50% of the test animals: see Warren Wick, et al., J. Bacteriol. 81, 233-235 (1961)].
^a mg/kg × 2; doses given 1 and 4 hours postinfection

[18] = test system: Staphylococcus epidermidis EPI1; test: MIC, standard agar-dilution assay, Staphylococcus epidermidis EPI1; type: cell-based
Experimental: as §1

[19] = physchem
[20] = Streptococcus pneumoniae Park I, read-out: MIC
[21] = Klebsiella pneumoniae KAE, read-out: MIC
[22] = Haemophilus influenzae 76, Ampicillin-resistant strain, read-out: MIC
[23] = Streptococcus pneumoniae Group D X9960, read-out: MIC
[24] = Haemophilus influenzae C.L., Ampicillin-sensitive strain, read-out: MIC
[25] = Escherichia coli TEM, read-out: MIC
[26] = Staphylococcus aureus X400, Methicillin-resistant strain, read-out: MIC
[27] = Staphylococcus aureus V41, Penicillin-resistant strain, read-out: MIC

Row | Compound | MIC [1] | MIC [2] | MIC [3, 20] | MIC ([4]; Staphylococcus aureus, V41) | MIC ([6]; read-out: MIC) | MIC [7, 21] | MIC ([8]; read-out: MIC) | MIC [9, 22] | MIC [10, 23] | MIC ([11]; read-out: MIC) | MIC [12, 24] | MIC ([15]; read-out: MIC) | MIC ([16]; Streptococcus pneumoniae) | ED50 ([17]; C203, Oral) | ED50 ([17]; C203, sc, Subcutaneous) | MIC ([18]; read-out: MIC) | MIC [6] | MIC [8] | MIC [13, 26] | MIC ([14]; Escherichia coli) | also measured
1 | CCC1OC(=O)CC(O)C(C)C(OC2OC(C)C(O)C(N(C)C)C2O)C(CCN2CCCCCCC2)CC(C)C(=O)C=CC(C)=CC1CN1CCCCCCC1 (stereo not shown) [Compound 15, 20-DH-DO-23-Deoxy-20,23-di(octahydroazocin-1-yl)-OMT] | 0.5 µg/mL (≈ 0.633 µM) | 0.25 µg/mL (≈ 0.316 µM) | 0.125 µg/mL (≈ 0.158 µM) | 0.5 µg/mL (≈ 0.633 µM) | 0.125 µg/mL (≈ 0.158 µM) | 8 µg/mL (≈ 10.1 µM) | 0.5 µg/mL (≈ 0.633 µM) | 1 µg/mL (≈ 1.27 µM) | 1 µg/mL (≈ 1.27 µM) | 2 µg/mL (≈ 2.53 µM) | 0.5 µg/mL (≈ 0.633 µM) | 4 µg/mL (≈ 5.06 µM) | 0.5 µg/mL (≈ 0.633 µM) | > 50 mg/kg | > 10 mg/kg | 0.5 µg/mL (≈ 0.633 µM) | – | – | – | – | pKa ([5]; Titration pKa value (first)): 6.9; pKa ([5]; Titration pKa value (second)): 8.05; pKa ([5]; Titration pKa value (third), third printed value): 8.9; MIC ([13]; Staphylococcus aureus, X400): 0.5 µg/mL (≈ 0.633 µM); MIC [14, 25]: 2 µg/mL (≈ 2.53 µM)
2 | CCC1OC(=O)CC(O)C(C)C(OC2OC(C)C(O)C(N(C)C)C2O)C(CCN2CCCCCC2)CC(C)C(=O)C=CC(C)=CC1CO (stereo not shown) [Compound 5] | 4 µg/mL (≈ 5.87 µM) | 2 µg/mL (≈ 2.94 µM) | – | 4 µg/mL (≈ 5.87 µM) | – | 128 µg/mL (≈ 188 µM) | – | – | – | 4 µg/mL (≈ 5.87 µM) | – | – | 16 µg/mL (≈ 23.5 µM) | > 100 mg/kg | 7.8 mg/kg | 2 µg/mL (≈ 2.94 µM) | 0.5 µg/mL (≈ 0.734 µM) | 4 µg/mL (≈ 5.87 µM) | 8 µg/mL (≈ 11.7 µM) | 16 µg/mL (≈ 23.5 µM) | MIC ([9]; Haemophilus influenzae, 76): 16 µg/mL (≈ 23.5 µM); MIC ([10]; Streptococcus pneumoniae): 16 µg/mL (≈ 23.5 µM); MIC ([12]; Haemophilus influenzae): 16 µg/mL (≈ 23.5 µM); MIC [15]: 128 µg/mL (≈ 188 µM)
3 | CCC1OC(=O)CC(O)C(C)C(OC2OC(C)C(O)C(N(C)C)C2O)C(CCN2CCC(c3ccccc3)CC2)CC(C)C(=O)C=CC(C)=CC1CO (stereo not shown) [Compound 4, 20-DH-DO-20-(4-Phenylpiperidin-1-yl)-OMT] | 2 µg/mL (≈ 2.69 µM) | 0.5 µg/mL (≈ 0.673 µM) | 0.25 µg/mL (≈ 0.336 µM) | 2 µg/mL (≈ 2.69 µM) | – | – | – | – | 4 µg/mL (≈ 5.38 µM) | – | – | 32 µg/mL (≈ 43.1 µM) | 2 µg/mL (≈ 2.69 µM) | > 100 mg/kg | > 10 mg/kg | 1 µg/mL (≈ 1.35 µM) | 2 µg/mL (≈ 2.69 µM) | 2 µg/mL (≈ 2.69 µM) | – | 8 µg/mL (≈ 10.8 µM) | MIC ([7]; Klebsiella pneumoniae): 64 µg/mL (≈ 86.1 µM); MIC ([9]; Haemophilus influenzae, 76): 8 µg/mL (≈ 10.8 µM); MIC [11]: 2 µg/mL (≈ 2.69 µM); MIC ([12]; Haemophilus influenzae): 8 µg/mL (≈ 10.8 µM); MIC ([13]; Staphylococcus aureus, X400): 2 µg/mL (≈ 2.69 µM)
4 | CCC1OC(=O)CC(O)C(C)C(OC2OC(C)C(O)C(N(C)C)C2O)C(CCN2CCCCCC2)CC(C)C(=O)C=CC(C)=CC1C (stereo not shown) [Compound 23] | 4 µg/mL (≈ 6.02 µM) | 1 µg/mL (≈ 1.5 µM) | – | – | – | 128 µg/mL (≈ 193 µM) | 4 µg/mL (≈ 6.02 µM) | 16 µg/mL (≈ 24.1 µM) | 16 µg/mL (≈ 24.1 µM) | 2 µg/mL (≈ 3.01 µM) | 16 µg/mL (≈ 24.1 µM) | – | – | > 100 mg/kg | > 10 mg/kg | 2 µg/mL (≈ 3.01 µM) | 0.5 µg/mL (≈ 0.752 µM) | – | 8 µg/mL (≈ 12 µM) | 8 µg/mL (≈ 12 µM) | MIC [4, 27]: 4 µg/mL (≈ 6.02 µM); MIC [15]: 128 µg/mL (≈ 193 µM); MIC ([16]; Streptococcus pneumoniae Group D X66, read-out: MIC): 8 µg/mL (≈ 12 µM)
5 | CCC1OC(=O)CC(O)C(C)C(OC2OC(C)C(O)C(N(C)C)C2O)C(CCN2CC3CCC(CC3)C2)CC(C)C(=O)C=CC(C)=CC1CO (stereo not shown) [Compound 13, 20-DH-DO-20-[3-Azabicyclo(3.2.2)-nonan-3-yl]-OMT] | 1 µg/mL (≈ 1.41 µM) | 0.25 µg/mL (≈ 0.354 µM) | – | 1 µg/mL (≈ 1.41 µM) | 2 µg/mL (≈ 2.83 µM) | – | – | 2 µg/mL (≈ 2.83 µM) | 8 µg/mL (≈ 11.3 µM) | 2 µg/mL (≈ 2.83 µM) | 4 µg/mL (≈ 5.66 µM) | 32 µg/mL (≈ 45.3 µM) | 4 µg/mL (≈ 5.66 µM) | 87 mg/kg | 5.9 mg/kg | – | – | 1 µg/mL (≈ 1.41 µM) | 1 µg/mL (≈ 1.41 µM) | – | MIC ([3]; Streptococcus pneumoniae): 0.25 µg/mL (≈ 0.354 µM); MIC ([7]; Klebsiella pneumoniae): 64 µg/mL (≈ 90.5 µM); MIC [14, 25]: 8 µg/mL (≈ 11.3 µM); MIC [18]: 1 µg/mL (≈ 1.41 µM); pKa ([19]; Titration pKa value (first)): 7.7; pKa ([19]; Titration pKa value (second)): 9.3
6 | CCC1OC(=O)CC(O)C(C)C(OC2OC(C)C(O)C(N(C)C)C2O)C(CCN2CCOCC2)CC(C)C(=O)C=CC(C)=CC1CO (stereo not shown) [Compound 14, 20-DH-DO-20-Morpholino-OMT] | 4 µg/mL (≈ 5.98 µM) | 1 µg/mL (≈ 1.5 µM) | 0.5 µg/mL (≈ 0.748 µM) | – | 1 µg/mL (≈ 1.5 µM) | – | 4 µg/mL (≈ 5.98 µM) | 4 µg/mL (≈ 5.98 µM) | 4 µg/mL (≈ 5.98 µM) | – | 16 µg/mL (≈ 23.9 µM) | – | – | > 100 mg/kg | > 10 mg/kg | 2 µg/mL (≈ 2.99 µM) | – | – | 8 µg/mL (≈ 12 µM) | 64 µg/mL (≈ 95.7 µM) | MIC [4, 27]: 4 µg/mL (≈ 5.98 µM); pKa ([5]; Titration pKa value (first)): 6.5; pKa ([5]; Titration pKa value (second)): 8.4; MIC ([7]; Klebsiella pneumoniae KAE, symbol for not active at 128 mcg/ml, read-out: MIC): > 128 µg/mL; MIC [11]: 4 µg/mL (≈ 5.98 µM); MIC [15]: 128 µg/mL (≈ 191 µM)
